# Measured values from ChEMBL document CHEMBL5523762, “Discovery of Potent and Selective G9a Degraders for the Treatment of Pancreatic Cancer” (J Med Chem, 2024).
# The source made the active and inactive calls. No cut-off for these calls is given here.
# Assays:
# Panc1005 [1] = assay: Synergistic antiproliferative activity against human Panc1005 cells assessed as combination index upto 20 uM incubated for 72 hrs in presence of MRTX1133; assay type: functional
# ASPC1 [2] = assay: Sensitization of human ASPC1 cells to MRTX1133 assessed as upregulation of cleaved PARP level at 10 uM incubated for 24 hrs in presence of 1 uM MRTX1133 by Western blot analysis; assay type: functional, cell-based
# ASPC1 [3] = assay: Synergistic antiproliferative activity against human ASPC1 cells assessed as combination index for ED90 upto 20 uM incubated for 72 hrs in presence of MRTX1133; assay type: functional
# PANC-1 [4] = assay: Downregulation of H3K9me2 expression in human PANC-1 cells at 0.1 to 10 uM measured after 24 hrs by Western blot analysis; assay type: functional, cell-based; settings: dose 0.1-10 µM
# PANC-1 [5] = assay: Upregulation of cleaved PARP level in human PANC-1 cells at 0.1 to 10 uM measured after 24 hrs by Western blot analysis; assay type: functional, cell-based; settings: dose 0.1-10 µM
# PANC-1 [6] = assay: Effect on cell cycle arrest in human PANC-1 cells at 5 to 10 uM measured after 24 hrs by RNaseA/PI staining based flow cytometry analysis; assay type: functional; settings: dose 5-10 µM
# ASPC1 [7] = assay: Sensitization of human ASPC1 cells to MRTX1133 assessed as upregulation of gammaH2AX level at 10 uM incubated for 24 hrs in presence of 1 uM MRTX1133 by Western blot analysis; assay type: functional, cell-based
# PANC-1 [8] = assay: Effect on H3K23me3 level in human PANC-1 cells at 0.04 to 10 uM measured after 24 hrs by Western blot analysis; assay type: functional, cell-based; settings: dose 0.04-10 µM
# PANC-1 [9] = assay: Effect on H3K4me2 level in human PANC-1 cells at 0.04 to 10 uM measured after 24 hrs by Western blot analysis; assay type: functional, cell-based; settings: dose 0.04-10 µM
# KP-4 [10] = assay: Synergistic antiproliferative activity against human KP-4 cells assessed as combination index for ED90 upto 20 uM incubated for 72 hrs in presence of MRTX1133; assay type: functional
# CWR22R = assay: Antiproliferative activity against human 22Rv1 cells assessed as inhibition of cell growth measured after 7 days by SRB assay; assay type: functional, cell-based; settings: 22Rv1, 168 h
# [11] = molecular target: T1, Protein cereblon/Histone-lysine N-methyltransferase EHMT2 (Homo sapiens, UniProt Q96KQ7+Q96SW2); assay: PROTAC activity at CRBN/G9a in human PANC-1 cells assessed as induction of G9a degradation measured after 8 hrs by Western blot analysis; assay type: cell-based
# PANC-08-13 [12] = assay: Synergistic antiproliferative activity against human PANC-08-13 cells assessed as combination index for ED90 upto 20 uM incubated for 72 hrs in presence of MRTX1133; assay type: functional
# [13] = molecular target: T2, Protein cereblon/Histone-lysine N-methyltransferase EHMT1 (Homo sapiens) (UniProt Q9H9B1+Q96SW2); assay: PROTAC activity at CRBN/GLP in human PANC-1 cells assessed as induction of GLP degradation at 1 uM measured after 8 to 24 hrs by Western blot analysis; assay type: cell-based; settings: time 8-24 hrs
# T2 sequence (Q96SW2 whole entry, looked up): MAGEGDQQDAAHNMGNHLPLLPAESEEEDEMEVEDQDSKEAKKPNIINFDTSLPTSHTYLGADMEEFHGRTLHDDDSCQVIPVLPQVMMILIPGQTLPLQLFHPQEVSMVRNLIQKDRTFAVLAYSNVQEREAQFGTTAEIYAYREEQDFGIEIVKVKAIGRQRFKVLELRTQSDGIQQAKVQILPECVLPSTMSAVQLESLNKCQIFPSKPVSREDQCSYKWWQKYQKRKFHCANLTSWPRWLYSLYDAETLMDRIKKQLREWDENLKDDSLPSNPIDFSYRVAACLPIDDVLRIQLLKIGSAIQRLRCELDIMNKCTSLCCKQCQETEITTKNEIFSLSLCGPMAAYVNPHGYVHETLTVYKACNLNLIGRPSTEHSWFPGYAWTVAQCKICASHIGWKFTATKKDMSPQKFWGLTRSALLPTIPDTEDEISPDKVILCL
# T2 sequence (Q9H9B1 whole entry, looked up): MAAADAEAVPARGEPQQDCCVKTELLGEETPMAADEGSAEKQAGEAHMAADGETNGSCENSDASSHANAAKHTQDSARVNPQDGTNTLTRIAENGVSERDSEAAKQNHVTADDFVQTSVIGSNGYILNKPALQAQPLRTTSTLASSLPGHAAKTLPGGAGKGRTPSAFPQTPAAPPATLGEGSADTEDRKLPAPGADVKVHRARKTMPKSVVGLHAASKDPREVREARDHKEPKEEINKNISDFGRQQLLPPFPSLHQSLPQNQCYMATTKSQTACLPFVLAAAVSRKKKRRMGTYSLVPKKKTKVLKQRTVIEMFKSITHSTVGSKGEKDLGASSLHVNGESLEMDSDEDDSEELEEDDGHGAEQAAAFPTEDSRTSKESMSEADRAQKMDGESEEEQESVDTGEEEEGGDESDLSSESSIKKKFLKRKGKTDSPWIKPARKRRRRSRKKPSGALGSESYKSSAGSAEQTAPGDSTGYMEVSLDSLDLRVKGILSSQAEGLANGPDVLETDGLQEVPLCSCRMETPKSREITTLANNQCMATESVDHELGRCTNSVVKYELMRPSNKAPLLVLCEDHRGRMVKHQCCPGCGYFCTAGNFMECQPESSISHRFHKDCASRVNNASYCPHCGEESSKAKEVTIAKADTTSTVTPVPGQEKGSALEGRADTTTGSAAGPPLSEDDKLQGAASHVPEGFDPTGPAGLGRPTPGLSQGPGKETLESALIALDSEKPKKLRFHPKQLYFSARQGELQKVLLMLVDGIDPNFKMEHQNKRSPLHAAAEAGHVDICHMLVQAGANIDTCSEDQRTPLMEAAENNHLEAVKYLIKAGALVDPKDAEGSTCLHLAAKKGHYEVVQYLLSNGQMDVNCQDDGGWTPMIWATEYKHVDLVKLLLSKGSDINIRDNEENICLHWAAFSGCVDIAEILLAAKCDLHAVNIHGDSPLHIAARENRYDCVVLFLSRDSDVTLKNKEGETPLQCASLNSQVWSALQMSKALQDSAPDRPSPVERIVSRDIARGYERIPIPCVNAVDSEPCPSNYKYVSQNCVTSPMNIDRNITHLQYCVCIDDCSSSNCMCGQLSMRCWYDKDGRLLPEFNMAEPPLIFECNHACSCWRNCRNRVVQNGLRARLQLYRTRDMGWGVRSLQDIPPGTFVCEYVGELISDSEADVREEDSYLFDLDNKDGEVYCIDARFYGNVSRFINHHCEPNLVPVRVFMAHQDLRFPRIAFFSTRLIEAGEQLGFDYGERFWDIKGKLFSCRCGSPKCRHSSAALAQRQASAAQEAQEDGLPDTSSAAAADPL
# PANC-1 [14] = assay: Effect on CK1alpha level in human PANC-1 cells at 0.008 to 10 uM measured after 8 hrs by western blot analysis; assay type: functional, cell-based; settings: dose 0.008-10 µM
# Panc 02.03 [15] = assay: Synergistic antiproliferative activity against human Panc 02.03 cells assessed as combination index for ED90 upto 20 uM incubated for 72 hrs in presence of MRTX1133; assay type: functional
# Panc1005 [16] = assay: Antiproliferative activity against human Panc1005 cells assessed as inhibition of cell growth measured after 72 hrs by SRB assay; assay type: functional, cell-based
# PANC-1 [17] = assay: Antiproliferative activity against human PANC-1 cells assessed as inhibition of cell growth measured after 72 hrs by SRB assay; assay type: functional, cell-based
# PANC-1 [18] = assay: Effect on H3K27me1 level in human PANC-1 cells at 0.04 to 10 uM measured after 24 hrs by Western blot analysis; assay type: functional, cell-based; settings: dose 0.04-10 µM
# KP-4 [19] = assay: Synergistic antiproliferative activity against human KP-4 cells at 0 to 10 uM incubated for 72 hrs in presence of MRTX1133 by SRB assay; assay type: functional, cell-based; settings: dose 0-10 µM
# [20] = molecular target: T1, Protein cereblon/Histone-lysine N-methyltransferase EHMT2; assay: PROTAC activity at CRBN/G9a in human ASPC1 cells assessed as induction of G9a degradation measured after 8 hrs by Western blot analysis; assay type: cell-based
# Target sequence in this assay (Q96KQ7 whole entry): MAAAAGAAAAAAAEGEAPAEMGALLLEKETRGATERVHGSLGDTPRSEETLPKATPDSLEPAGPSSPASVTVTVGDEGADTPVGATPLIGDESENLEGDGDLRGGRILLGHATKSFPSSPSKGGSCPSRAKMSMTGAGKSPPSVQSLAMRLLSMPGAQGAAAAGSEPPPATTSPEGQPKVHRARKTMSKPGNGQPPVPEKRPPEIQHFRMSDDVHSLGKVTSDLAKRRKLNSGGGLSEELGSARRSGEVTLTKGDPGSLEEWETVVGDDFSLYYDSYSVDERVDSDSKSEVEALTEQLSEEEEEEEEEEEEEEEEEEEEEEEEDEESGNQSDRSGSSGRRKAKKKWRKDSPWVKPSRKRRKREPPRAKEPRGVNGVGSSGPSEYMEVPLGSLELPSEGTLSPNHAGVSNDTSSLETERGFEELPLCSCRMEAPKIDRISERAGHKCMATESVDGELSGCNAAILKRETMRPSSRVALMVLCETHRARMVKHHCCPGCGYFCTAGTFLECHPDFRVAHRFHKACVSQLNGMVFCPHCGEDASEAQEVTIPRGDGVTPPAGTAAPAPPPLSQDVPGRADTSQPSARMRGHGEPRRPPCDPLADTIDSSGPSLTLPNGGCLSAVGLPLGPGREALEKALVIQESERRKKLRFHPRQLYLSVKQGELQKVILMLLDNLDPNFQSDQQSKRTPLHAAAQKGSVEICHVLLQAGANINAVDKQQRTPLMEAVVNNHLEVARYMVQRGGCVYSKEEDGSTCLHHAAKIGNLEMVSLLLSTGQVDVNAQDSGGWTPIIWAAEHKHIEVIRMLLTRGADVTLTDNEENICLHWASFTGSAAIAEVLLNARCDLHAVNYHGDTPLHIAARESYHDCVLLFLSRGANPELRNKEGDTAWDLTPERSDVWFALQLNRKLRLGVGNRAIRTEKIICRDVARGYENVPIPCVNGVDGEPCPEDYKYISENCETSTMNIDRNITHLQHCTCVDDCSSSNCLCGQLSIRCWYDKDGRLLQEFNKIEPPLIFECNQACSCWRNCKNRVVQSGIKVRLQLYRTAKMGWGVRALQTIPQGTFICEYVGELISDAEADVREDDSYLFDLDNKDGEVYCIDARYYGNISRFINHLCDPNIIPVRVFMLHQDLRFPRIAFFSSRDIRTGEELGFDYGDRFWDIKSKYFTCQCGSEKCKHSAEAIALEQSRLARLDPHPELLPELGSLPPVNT
# Target sequence in this assay (Q96SW2 whole entry): as the sequence (Q96SW2 whole entry, looked up) above
# PANC-1 [21] = assay: Upregulation of gammaH2AX expression in human PANC-1 cells at 0.1 to 10 uM measured after 24 hrs by Western blot analysis; assay type: functional, cell-based; settings: dose 0.1-10 µM
# ASPC1 [22] = assay: Downregulation of H3K9me2 level in human ASPC1 cells at 10 uM incubated for 24 hrs in presence of 1 uM MRTX1133 by Western blot analysis; assay type: functional, cell-based
# PANC-1 [23] = assay: Induction of apoptosis in human PANC-1 cells at 10 uM by Annexin V-FITC/PI staining based flow cytometry analysis; assay type: functional, cell-based; settings: time 12-72 hrs, TDE = time-dependent effect
# KP-4 [24] = assay: Antiproliferative activity against human KP-4 cells assessed as inhibition of cell growth measured after 72 hrs by SRB assay; assay type: functional, cell-based
# PANC-1 [25] = assay: Downregulation of H3K9me2 level in human PANC-1 cells measured after 24 hrs by Western blot analysis; assay type: functional, cell-based; settings: dose 0.04-10 µM
# KP-4 [26] = assay: Synergistic antiproliferative activity against human KP-4 cells assessed as combination index upto 20 uM incubated for 72 hrs in presence of MRTX1133; assay type: functional
# PANC-1 [27] = assay: Effect on H3K36me3 level in human PANC-1 cells at 0.04 to 10 uM measured after 24 hrs by Western blot analysis; assay type: functional, cell-based; settings: dose 0.04-10 µM
# Panc 04.03 = assay: Antiproliferative activity against human Panc 04.03 cells assessed as inhibition of cell growth measured after 72 hrs by SRB assay; assay type: functional, cell-based
# PANC-1 [28] = assay: Effect on H3K4me1 level in human PANC-1 cells at 0.04 to 10 uM measured after 24 hrs by Western blot analysis; assay type: functional, cell-based; settings: dose 0.04-10 µM
# [29] = molecular target: T2, Protein cereblon/Histone-lysine N-methyltransferase EHMT1 (Homo sapiens); assay: PROTAC activity at CRBN/GLP in human PANC-1 cells assessed as induction of GLP degradation at 0.008 to 10 uM measured after 8 hrs by Western blot analysis; assay type: cell-based; settings: dose 0.008-10 µM
# KP-4 [30] = assay: Inhibition of colony formation in human KP-4 cells at 5 to 10 uM in presence of MRTX1133 measured after 10 to 14 days by crystal violet staining based analysis; assay type: functional, cell-based; settings: dose 5-10 µM, time 10-14 day
# PANC-08-13 [31] = assay: Antiproliferative activity against human PANC-08-13 cells assessed as inhibition of cell growth measured after 72 hrs by SRB assay; assay type: functional, cell-based
# [32] = molecular target: T2, Protein cereblon/Histone-lysine N-methyltransferase EHMT1 (Homo sapiens); assay: PROTAC activity at CRBN/GLP in human ASPC1 cells assessed as induction of GLP degradation at 0.008 to 20 uM measured after 8 hrs by Western blot analysis; assay type: cell-based; settings: dose 0.008-20 µM
# [33] = molecular target: T1, Protein cereblon/Histone-lysine N-methyltransferase EHMT2; assay: PROTAC activity at CRBN/G9a in human PANC-1 cells assessed as induction of G9a degradation at 1 uM pretreated with UNC0638 for 2 hrs followed by compound addition and measured after 8 hrs by Western blot analysis; assay type: cell-based
# Target sequence in this assay (Q96KQ7 2-1210 limits assumed): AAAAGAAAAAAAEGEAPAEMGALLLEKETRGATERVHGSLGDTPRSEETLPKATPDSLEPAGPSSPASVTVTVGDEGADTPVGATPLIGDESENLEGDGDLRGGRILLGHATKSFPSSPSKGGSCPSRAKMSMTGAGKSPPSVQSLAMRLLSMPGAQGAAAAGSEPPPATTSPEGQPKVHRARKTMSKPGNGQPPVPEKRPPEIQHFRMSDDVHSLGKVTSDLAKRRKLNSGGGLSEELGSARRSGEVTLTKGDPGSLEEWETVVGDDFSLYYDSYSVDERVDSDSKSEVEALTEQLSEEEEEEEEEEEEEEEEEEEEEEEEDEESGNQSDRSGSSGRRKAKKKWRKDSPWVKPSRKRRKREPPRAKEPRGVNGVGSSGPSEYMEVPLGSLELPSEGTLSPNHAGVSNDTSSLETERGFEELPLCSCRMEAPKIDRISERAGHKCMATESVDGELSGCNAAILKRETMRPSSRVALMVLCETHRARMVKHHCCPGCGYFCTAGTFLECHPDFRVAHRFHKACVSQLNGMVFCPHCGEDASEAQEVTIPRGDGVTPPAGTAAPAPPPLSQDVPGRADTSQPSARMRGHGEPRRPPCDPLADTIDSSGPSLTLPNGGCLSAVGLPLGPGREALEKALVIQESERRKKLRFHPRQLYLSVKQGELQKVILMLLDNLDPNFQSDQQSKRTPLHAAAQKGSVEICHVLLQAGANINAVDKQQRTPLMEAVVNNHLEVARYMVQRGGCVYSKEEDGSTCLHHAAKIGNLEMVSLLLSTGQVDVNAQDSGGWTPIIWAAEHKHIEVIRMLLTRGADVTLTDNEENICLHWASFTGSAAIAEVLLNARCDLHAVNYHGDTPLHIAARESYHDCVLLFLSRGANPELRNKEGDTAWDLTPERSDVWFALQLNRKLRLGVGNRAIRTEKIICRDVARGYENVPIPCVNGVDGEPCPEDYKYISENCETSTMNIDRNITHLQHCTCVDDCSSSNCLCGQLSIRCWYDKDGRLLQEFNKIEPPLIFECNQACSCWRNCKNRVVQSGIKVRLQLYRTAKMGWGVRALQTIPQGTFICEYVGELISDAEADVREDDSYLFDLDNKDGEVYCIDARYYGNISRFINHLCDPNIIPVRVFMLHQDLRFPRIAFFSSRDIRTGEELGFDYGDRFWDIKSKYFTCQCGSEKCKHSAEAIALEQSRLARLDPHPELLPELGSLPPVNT
# Target sequence in this assay (Q96SW2 whole entry partner): as the sequence (Q96SW2 whole entry, looked up) above
# PANC-1 [34] = assay: Effect on H3K27me3 level in human PANC-1 cells at 0.04 to 10 uM measured after 24 hrs by Western blot analysis; assay type: functional, cell-based; settings: dose 0.04-10 µM
# Panc 02.03 [35] = assay: Antiproliferative activity against human Panc 02.03 cells assessed as inhibition of cell growth measured after 72 hrs by SRB assay; assay type: functional, cell-based
smiles,measurement,setting,value
COc1cc2c(NC3CCN(CCCC(=O)NCCCCCCCCNc4cccc5c4C(=O)N(C4CCC(=O)NC4=O)C5=O)CC3)nc(C3CCCCC3)nc2cc1OCCCN1CCCC1 (stereo not drawn),CI,Panc1005 [1],<0.8
same,Activity,ASPC1 [2],Active
same,CI,ASPC1 [3],<0.4
same,Activity,PANC-1 [4],Active
same,Activity,PANC-1 [5],Active
same,Activity,PANC-1 [6],Active
same,Activity,ASPC1 [7],Active
same,Activity,PANC-1 [8],inactive
same,Activity,PANC-1 [9],inactive
same,CI,KP-4 [10],<0.4
same,IC50,CWR22R,9900 nM
same,Activity,[11],Dose-Dependent Effect
same,DC50,[11],100 nM
same,CI,PANC-08-13 [12],<0.4
same,Activity,[13],inactive
same,Activity,PANC-1 [14],inactive
same,CI,Panc 02.03 [15],<0.4
same,Activity,Panc1005 [16],Active
same,Activity,PANC-1 [17],Active
same,Activity,PANC-1 [18],inactive
same,Activity,KP-4 [19],Active
same,DC50,[20],200 nM
same,Activity,PANC-1 [21],Active
same,Activity,ASPC1 [22],Active
same,Activity,PANC-1 [23],Tde
same,Activity,KP-4 [24],Active
same,Activity,PANC-1 [25],Active
same,CI,KP-4 [26],<0.8
same,Activity,PANC-1 [27],inactive
same,Activity,Panc 04.03,Active
same,Activity,PANC-1 [28],inactive
same,Activity,[29],inactive
same,inhibition,KP-4 [30],Active
same,Activity,PANC-08-13 [31],Active
same,Activity,[32],inactive
same,Activity,[33],inactive
same,Activity,PANC-1 [34],inactive
same,Activity,Panc 02.03 [35],Active
